Measurements reported in US9963461B2, “Phillygenin ibuprofen ester, preparation method therefor, and application thereof” (priority 2014, dated 2018).
Read-outs that look alike come from different tables or passages of the source. Marks after values point to notes of the source that are not given here.

Tests used:
[1] = tested on: Adenovirus (AdV); assay: Impact of the drugs on the virus-induced cytopathy (MTT); format: cell-based; details: ADV 100 TCID50, Vero cells, about the maximal non-cytotoxic concentration, 72 hours
[2] = Solubility; format: physicochemical
[3] = tested on: influenza virus; format: in vivo, Kunming mice; details: lung suspensions, influenza virus infected mice, 5 days
[4] = tested on: Vero cell; assay: Cytotoxicity test on Vero cell (MTT); details: 72 hours
[5] = tested on: parainfluenza virus; format: in vivo, Kunming mice; details: for Lung index (X ± S) / Lung index Inhibitive rate (%): parainfluenza virus infected mice, 5 days
[6] = tested on: rabbit fever induced by typhoid and paratyphoid vaccine; assay: Rabbit fever induced by typhoid and paratyphoid vaccine; format: in vivo, Japanese white rabbits
Procedure: Japanese male big-ear white rabbits, weighing 1.5-2.0 kg. Before the test, WSC-411P portable digital thermometer was used to measure the normal rectal temperature twice (with certain interval for each time), and the average value was taken as the normal body temperature. Then 48 Japanese big-ear white rabbits with body temperature of 38-39.6° C. were selected and randomly divided into 8 groups by weight, namely: the blank control (normal saline) group, the model control (0.5% carboxymethylcellulose) group, the ibuprofen group (300 mg/kg), the phillygenin group (10 mg/kg), the 1.25, 2.5, and 5 mg/kg phillygenin ibuprofen ester groups and the positive drug paracetamol (50 mg/kg) group. The rabbits were fixed in a fixator. The blank control group was intravenously injected with normal saline of 1 ml/kg via the ear margin; The model control group and the drug groups were intravenously injected with typhoid and paratyphoid vaccines of 0.8 ml/kg via the ear margin. When the body temperature rise of the rabbits was greater than 1° C. (requiring about 1-1.5 h, which was restricted to 1 h in this test), the blank control group and the model group were administered intragastrically with 0.5% carboxymethycellulose of 1 ml/kg, and the drug groups were administered intragastrically with phillygenin ibuprofen ester and paracetamol. […]

[7] = tested on: coxsackie virus B3 (CVB3); assay: Impact of the drugs on the virus-induced cytopathy (MTT); format: cell-based; details: CVB3 100 TCID50, Vero cells, about the maximal non-cytotoxic concentration, 72 hours
[8] = tested on: sweat gland epithelial cells at the rat toe part; assay: Sweat secretion of rat paw part (tissue morphology observation method); format: in vivo, Wistar rats; details: for Number of sweat glands of vacuole / Void fraction (%): rat toe part
Source text: This test was based on the mechanism that when rat sweat gland is excited, in addition to sweat secretion increase, the morphology of sweat gland epithelial cell is also changed. The number increase and expansion of empty cells of the sweat gland epithelial cells can be seen under the optical microscope. Such enlarged vacuole presents mitochondrial in sweat gland epithelial cells swelling, rupture, fusion and secretory vesicle enlargement under the electron microscope, and through the morphological observation of the sweat gland epithelial cell at the rat paw part, the secretory activity of the sweat gland can be known. In the test, 70 Wistar rats were selected, with equal male and female number, weighing 120-160 g. […] Besides that subcutaneous injection was used for the pilocarpine solution, intragastric administration was used for all the other groups.

[9] = tested on: influenza virus; format: in vivo, Kunming mice; details: for Lung index (X ± S) / Lung index Inhibitive rate (%): influenza virus infected mice, 5 days
[10] = tested on: rat toe swelling induced by carrageenan; assay: Rat toe swelling induced by carrageenan; format: in vivo, Wistar rats
Procedure: The test groups were administered by sublingual intravenous injection. Before the test, capillary magnification measurement method was used to measure the normal volume of the right hind foot of the rats in each group. To avoid errors, the measurement location was fixed and the operation was made by one person both before and after the administration. The average value of the two measurements was taken as the normal volume of the right hind foot of the rats before administration. […] The difference between the groups was compared by inter-group t test processing through the difference percentage (swelling ratio) of the paw volume before and after the induced rat inflammation.

[11] = tested on: influenza and parainfluenza virus induced pneumonia; assay: Histomorphology observation of lung; format: in vivo, Kunming mice; details: high dosage and medium dosage groups, Day 5 after treatment
Procedure: On Day 5 after treatment, the lungs of mice in each group were picked, and general pathological changes of their viscera are observed by naked eyes and are recorded. The lungs were rinsed with normal saline and moisture thereon is sucked up by using filter paper, a part of the lung was fixed with 10% formaldehyde and embedded with paraffin and sliced, and the lung tissue slices were stained with HE, followed by observation and photographing under a microscope.

[12] = tested on: parainfluenza virus; format: in vivo, Kunming mice; details: mouse, in vivo
[13] = tested on: Coxsackie virus A16 (CoxA16); assay: Impact of the drugs on the virus-induced cytopathy (MTT); format: cell-based; details: CoxA16 100 TCID50, Vero cells, about the maximal non-cytotoxic concentration, 72 hours
[14] = 1.25 mg/kg, time after administration (min) 30
[15] = 1.25 mg/kg, time after administration (min) 60
[16] = 1.25 mg/kg, time after administration (min) 90
[17] = 1.25 mg/kg, time after administration (min) 120
[18] = 1.25 mg/kg, time after administration (min) 180
[19] = 2.5 mg/kg, time after administration (min) 30
[20] = 2.5 mg/kg, time after administration (min) 60
[21] = 2.5 mg/kg, time after administration (min) 90
[22] = 2.5 mg/kg, time after administration (min) 120
[23] = 2.5 mg/kg, time after administration (min) 180
[24] = 5.0 mg/kg, time after administration (min) 30
[25] = 5.0 mg/kg, time after administration (min) 90
[26] = 5.0 mg/kg, time after administration (min) 120
[27] = 5.0 mg/kg, time after administration (min) 180

Structure (SMILES): COc1ccc([C@H]2OCC3C2CO[C@H]3c2ccc(OC)c(OC(=O)C(C)c3ccc(CC(C)C)cc3)c2)cc1OC (stereo partly drawn) [Phillygenin ibuprofen ester, phillygenin ibuprofen ester]
- antiviral effective rate (ER %) [1]: 75.90**^## %
- solubility [2]: soluble in methanol; chloroform, and dichloromethane
- Hemagglutination titer (InX) ([3]; 3.25 mg/kg/d): 22.01 ± 1.420
- Hemagglutination titer Inhibitive rate (%) ([3]; 3.25 mg/kg/d): 32.07%
- Hemagglutination titer (InX) ([3]; 13.0 mg/kg/d): 19.32 ± 0.624
- Hemagglutination titer Inhibitive rate (%) ([3]; 13.0 mg/kg/d): 40.36%
- Median toxic concentration (TC50) [4]: 485 µg/mL
- maximal non-toxic concentration (TC0) [4]: 0.109 g/L
- effect on average lung index vs infection model group ([5]; mouse, in vivo): certain protective effect
- Lung index (X ± S) ([5]; 3.25 mg/kg/d intragastric): 1.320 ± 0.053
- Lung index Inhibitive rate (%) ([5]; 3.25 mg/kg/d intragastric): 17.01%
- Lung index (X ± S) ([5]; 13.0 mg/kg/d intragastric): 1.237 ± 0.070
- Lung index Inhibitive rate (%) ([5]; 13.0 mg/kg/d intragastric): 22.25%
- Body temperature (° C.) [6, 14]: 40.68 ± 0.41 °C
- antipyretic percentage (%) [6, 14]: 0.98 ± 0.11%
- Body temperature (° C.) [6, 15]: 40.61 ± 0.38 °C
- antipyretic percentage (%) [6, 15]: −1.15 ± 0.15 %
- Body temperature (° C.) [6, 16]: 40.50 ± 0.39 °C
- antipyretic percentage (%) [6, 16]: −1.40 ± 0.20 %
- Body temperature (° C.) [6, 17]: 40.29 ± 0.42 °C
- antipyretic percentage (%) [6, 17]: −1.92 ± 0.31 %
- Body temperature (° C.) [6, 18]: 40.10 ± 0.35 °C
- antipyretic percentage (%) [6, 18]: −2.39 ± 0.43 %
- Body temperature (° C.) [6, 19]: 40.83 ± 0.39 °C
- antipyretic percentage (%) [6, 19]: −1.10 ± 0.00 %
- Body temperature (° C.) [6, 20]: 40.37 ± 0.33 °C
- antipyretic percentage (%) [6, 20]: −2.20 ± 0.05**^Δ▴▴ %
- Body temperature (° C.) [6, 21]: 40.12 ± 0.21 °C
- antipyretic percentage (%) [6, 21]: −2.81 ± 0.12 %
- Body temperature (° C.) [6, 22]: 40.02 ± 0.20 °C
- antipyretic percentage (%) [6, 22]: −3.06 ± 0.43 %
- Body temperature (° C.) [6, 23]: 39.90 ± 0.25 °C
- antipyretic percentage (%) [6, 23]: −3.35 ± 0.29 %
- antipyretic percentage (%) ([6]; 5.0 mg/kg, 60 min after administration): −2.61 ± 0.10**^ΔΔ▴▴ %
- Body temperature (° C.) [6, 24]: 40.57 ± 0.28 °C
- antipyretic percentage (%) [6, 24]: −1.30 ± 0.11 %
- Body temperature (° C.) ([6]; 5.0 mg/kg, time after administration (min) 60): 40.04 ± 0.20 °C
- Body temperature (° C.) [6, 25]: 39.88 ± 0.23 °C
- antipyretic percentage (%) [6, 25]: −2.98 ± 0.22 %
- Body temperature (° C.) [6, 26]: 39.65 ± 0.20 °C
- antipyretic percentage (%) [6, 26]: −3.54 ± 0.18***^Δ▴▴▴ %
- Body temperature (° C.) [6, 27]: 39.42 ± 0.25 °C
- antipyretic percentage (%) [6, 27]: −4.10 ± 0.17***^Δ▴▴ %
- effect on rabbit fever induced by the typhoid and paratyphoid vaccines vs model group ([6]; high and medium dose groups (5, 10 mg/kg) 30-240 min, low dose group (5 mg/kg) 60-240 min after administration): significant antipyretic effect
- antiviral effective rate (ER %) [7]: 75.83**^## %
- effect on the sweat secretion of the rat toe part vs control group ([8]; 5 and 10 mg/kg, p<0.01 or p<0.001): obvious promoting effect
- Number of sweat glands of vacuole ([8]; 2.5 mg/kg intragastric): 20
- Void fraction (%) ([8]; 2.5 mg/kg intragastric): 8.47%
- Number of sweat glands of vacuole ([8]; 5.0 mg/kg intragastric): 42
- Void fraction (%) ([8]; 5.0 mg/kg intragastric): 32.11***; ^# %
- Number of sweat glands of vacuole ([8]; 10.0 mg/kg intragastric): 75
- Void fraction (%) ([8]; 10.0 mg/kg intragastric): 35.21***; ^## %
- Lung index (X ± S) ([9]; 4.0 mg/kg/d intragastric): 1.222 ± 0.040
- Lung index Inhibitive rate (%) ([9]; 4.0 mg/kg/d intragastric): 17.90%
- Lung index (X ± S) ([9]; 8.0 mg/kg/d intragastric): 1.190 ± 0.061
- Lung index Inhibitive rate (%) ([9]; 8.0 mg/kg/d intragastric): 20.05%
- Lung index (X ± S) ([9]; 13.0 mg/kg/d intragastric): 1.147 ± 0.048
- Lung index Inhibitive rate (%) ([9]; 13.0 mg/kg/d intragastric): 22.94%
- effect on average lung index vs infection model group ([9]; mouse, in vivo): certain protective effect
- Swelling ratio (%) ([10]; 2.5 mg/kg sublingual intravenous injection, 30 min): 0.215 ± 0.120%
- Swelling ratio (%) ([10]; 2.5 mg/kg sublingual intravenous injection, 60 min): 0.293 ± 1.117%
- Swelling ratio (%) ([10]; 2.5 mg/kg sublingual intravenous injection, 120 min): 0.450 ± 0.254%
- Swelling ratio (%) ([10]; 2.5 mg/kg sublingual intravenous injection, 180 min): 0.800 ± 0.339%
- Swelling ratio (%) ([10]; 2.5 mg/kg sublingual intravenous injection, 240 min): 0.865 ± 0.303%
- Swelling ratio (%) ([10]; 2.5 mg/kg sublingual intravenous injection, 300 min): 1.045 ± 0.308%
- Swelling ratio (%) ([10]; 2.5 mg/kg sublingual intravenous injection, 360 min): 0.930 ± 0.200%
- Swelling ratio (%) ([10]; 5.0 mg/kg sublingual intravenous injection, 30 min): 0.065 ± 0.112 %
- Swelling ratio (%) ([10]; 5.0 mg/kg sublingual intravenous injection, 60 min): 0.127 ± 0.178 %
- Swelling ratio (%) ([10]; 5.0 mg/kg sublingual intravenous injection, 120 min): 0.209 ± 0.438 %
- Swelling ratio (%) ([10]; 5.0 mg/kg sublingual intravenous injection, 180 min): 0.338 ± 0.524 %
- Swelling ratio (%) ([10]; 5.0 mg/kg sublingual intravenous injection, 240 min): 0.461 ± 0.402**^Δ %
- Swelling ratio (%) ([10]; 5.0 mg/kg sublingual intravenous injection, 300 min): 0.688 ± 0.503%
- Swelling ratio (%) ([10]; 5.0 mg/kg sublingual intravenous injection, 360 min): 0.675 ± 0.578%
- Swelling ratio (%) ([10]; 10.0 mg/kg sublingual intravenous injection, 30 min): 0.025 ± 0.210***^Δ▴▴▴ %
- Swelling ratio (%) ([10]; 10.0 mg/kg sublingual intravenous injection, 60 min): 0.079 ± 0.156**^Δ▴▴ %
- Swelling ratio (%) ([10]; 10.0 mg/kg sublingual intravenous injection, 120 min): 0.140 ± 0.156 %
- Swelling ratio (%) ([10]; 10.0 mg/kg sublingual intravenous injection, 180 min): 0.191 ± 0.216 %
- Swelling ratio (%) ([10]; 10.0 mg/kg sublingual intravenous injection, 240 min): 0.255 ± 0.294 %
- Swelling ratio (%) ([10]; 10.0 mg/kg sublingual intravenous injection, 300 min): 0.310 ± 0.226***^Δ▴▴ %
- Swelling ratio (%) ([10]; 10.0 mg/kg sublingual intravenous injection, 360 min): 0.405 ± 0.231 %
- effect on the rat paw swelling induced by carrageenin vs blank control group ([10]; high dose group, within 30 min to 360 min after administration): significant inhibitive effects
- lung lesions of mice (lung histology, HE) [11]: significantly alleviated
- Hemagglutination titer (InX) ([12]; 3.25 mg/kg/day): 21.55 ± 0.857
- Hemagglutination titer Inhibitive rate (%) ([12]; 3.25 mg/kg/day): 34.90%
- Hemagglutination titer (InX) ([12]; 13 mg/kg/day): 19.75 ± 0.902
- Hemagglutination titer Inhibitive rate (%) ([12]; 13 mg/kg/day): 40.34%
- antiviral effective rate (ER %) [13]: 75.89**^## %
